“Also recorded” adds a separate entry of the source.
Experiments:
E. coli ATCC 25922 = test: Antimicrobial efficacy (resazurin virtual colony count); format: cell-based, Escherichia coli; conditions: for increase of EC50 in presence of albumin relative to EC50 in DPBS: DPBS + 4% (w/v) bovine serum albumin versus DPBS; for decrease of efficacy in DPBS relative to 10 mM Na-PO4: DPBS versus 10 mM Na-PO4; for decrease of efficacy under physiologically relevant ionic conditions: PBS versus low ionic conditions
[1] = Endotoxin binding: competitive displacement of BODIPY TR-Cadaverine from LPS; parameters: species or system Escherichia coli; conditions: 5 μM peptide; for increase in affinity for LPS compared to the peptide lacking the hydrophobic tail: vs ATRA1 / ATRA1-R3W2; for LPS binding (BC displacement), in words: 10 μM BC, 10 μg/mL LPS, low ionic-strength 10 mM Na-PO4
Experimental: FIGS. 2A-2B are graphs showing endotoxin binding. The figures depict the competitive displacement of BC from LPS/LTA by the peptides. 5 μM of each peptide was incubated with 10 μM BC and 10 μg/mL LPS from E. coli (0111:B4) or LTA from S. aureus. Fluorescence intensity was measured at excitation=580 nm and emission=620 nm. 10 μM BC without endotoxin was used as 100% displacement while 10 μM BC with 10 μg/mL LPS/LTA without any peptide as 0% displacement and the % displacement of BC by each peptide was calculated accordingly. […] had been used as a positive control. The horizontal dotted line coincides with the % displacement of BC by ATRA1 on the y-axis.
FIGS. 6A-6B are graphs showing endotoxin (LPS (FIG. 6A) and LTA (FIG. 6B)) binding. Competitive displacement of BC from LPS/LTA. In each case, 5 μM peptide was incubated with 10 μM BC and 10 μg/mL LPS from E. coli (0111:B4) or LTA from S. aureus. Fluorescence intensity was measured using excitation=580 nm and emission=620 nm. As a positive control 10 μM BC without endotoxin was used as a reference for 100% displacement while 10 μM BC with 10 μg/mL LPS/LTA without any peptide as a negative control and a reference for 0% displacement. These controls were used to calculate % BC displacement for each peptide.
Endotoxin Binding. The binding of endotoxin (LPS/LTA) was evaluated using a fluorogenic conjugateBODIPY TR-Cadaverine (BC). BC binds endotoxin loses its fluorescence. The peptide competitively displaces BC from endotoxin and the fluorescence is reestablished. Competitive inhibition of endotoxin-BC binding was utilized due to presence of peptides already in complexion with endotoxin. 25 μL of 20 μM of peptides in 10 mM Na—PO4 buffer were incubated with 25 μL of LPS (40 μg/mL) or LTA (40 μg/mL) for 15 min and then added with 50 μL of BC (20 uM). Peptides bind to LPS or LTA and competitively prevents BC bind to the endotoxin. BC loses its fluorescence on binding to endotoxin. The fluorescence intensity of the unbound BC was measured at excitation=580 nm and emission=620 nm.
BC contains two functional moieties: BODIPY (boron-dipyrromethene) and cadaverine connected via a carboxamide. BODIPY is the fluorophore of BC and fluoresces in the free state in solution but loses fluorescence when bound to LPS/LTA. The competitive displacement of BC from LPS/LTA by AMPs and thus regeneration of the fluorescence has frequently been used to estimate the binding strength of AMPs with LPS/LTA. In the present studies, 5 μM of each peptide was used to displace BC from LPS/LTA. […] Such observation contradicts the initial assumption that substitution of Lys with arginine would result in increased efficiency of LPS binding. However, with sequential substitutions of Lys with arginine, starting with ATRA1-AR, peptide variants show increased LPS binding with each additional arginine substitution. In terms of LPS binding: ATRA1-AR<ATRA1-AR2<ATRA1-AR3. In ATRA1-R3, the lysine residues at 9th, 5th and 1st positions of ATRA1 were substituted with arginine. In ATRA1-R6 all of the lysine residues were replaced with arginine.

[2] = PBS (high / physiologically relevant ionic strength), pH 7.4
[3] = DPBS (with Ca++ and Mg++), pH 7.4

KRFKKFFKKLKGGVIGVTFPF (SEQ ID NO: 38) [ATRA1-HYD, ATRA1 with hydrophobic tail of NA-CATH joined at the C-terminus by a short -GG- segment]
increase of EC50 in presence of albumin relative to EC50 in DPBS (E. coli ATCC 25922): approximately 2 fold | decrease of efficacy in DPBS relative to 10 mM Na-PO4 (E. coli ATCC 25922): ~10 fold | increase in affinity for LPS compared to the peptide lacking the hydrophobic tail [1]: ~2 fold

KRAKKFFKRLK (SEQ ID NO: 6) [ATRA1-AR]
antimicrobial efficacy, in words (E. coli ATCC 25922; [2]): completely ineffective | LPS binding (BC displacement), in words [1]: lowest LPS binding of all of the peptides tested

RRFRRFFRRLR (SEQ ID NO: 10) [ATRA1-R6]
antimicrobial efficacy, in words (E. coli ATCC 25922; [3]): highly effective in DPBS | LPS binding (BC displacement), in words [1]: bound LPS more effectively than ATRA1-R3

RRFKRFFKRLK (SEQ ID NO: 9) [ATRA1-R3]
antimicrobial efficacy, in words (E. coli ATCC 25922; [3]): significantly reduced in DPBS relative to its activity in PBS | LPS binding (BC displacement), in words [1]: higher LPS binding than ATRA1

RRWKRFFKRWKGGVIGVTFPF (SEQ ID NO: 50) [ATRA1-R3W2-HYD, ATRA1-R3W2 with hydrophobic tail of NA-CATH joined by -GG-]
increase of EC50 in presence of albumin relative to EC50 in DPBS (E. coli ATCC 25922): did not demonstrate significant changes in EC50 values | decrease of efficacy under physiologically relevant ionic conditions (E. coli ATCC 25922): ~5 fold | LPS binding (BC displacement), in words [1]: binds LPS with similar affinity as ATRA1-HYD | increase in affinity for LPS compared to the peptide lacking the hydrophobic tail [1]: ~2 fold

KRFKKFFKKLKNSVKKRAKKFFKKPK (SEQ ID NO: 53) [NA-CATH26, first 26 residues of NA-CATH]
decrease of efficacy in DPBS relative to 10 mM Na-PO4 (E. coli ATCC 25922): ~14 fold | decrease of efficacy under physiologically relevant ionic conditions (E. coli ATCC 25922): approximately 2 fold | decrease in affinity for LPS relative to NA-CATH ([1]; deletion of hydrophobic tail): ~30%

RRWKRFFKRWK (SEQ ID NO: 15) [ATRA1-R3W2]
antimicrobial efficacy, in words (E. coli ATCC 25922; [3]): more effective than either of its parent peptides | increase of EC50 in presence of albumin relative to EC50 in DPBS (E. coli ATCC 25922): ~5 fold | decrease of efficacy in DPBS relative to 10 mM Na-PO4 (E. coli ATCC 25922): approximately 3 fold | antimicrobial efficacy, in words (E. coli ATCC 25922; serum): no antimicrobial property | LPS binding (BC displacement), in words [1]: more effective in LPS binding than either of ATRA1-R3 and ATRA1-W2; also recorded: binds LPS marginally greater than ATRA1

KRFKKFFKKLK (SEQ ID NO: 2) [ATRA1, first 11 residues of NA-CATH]
antimicrobial efficacy, in words (E. coli ATCC 25922; [3]): lose activity in DPBS; also recorded: lost antimicrobial property | antimicrobial efficacy, in words (E. coli ATCC 25922; [2]): effective in PBS

KRAKKFFKKLK (SEQ ID NO: 4) [ATRA1-A]
antimicrobial efficacy, in words (E. coli ATCC 25922; [3]): lose activity in DPBS | antimicrobial efficacy, in words (E. coli ATCC 25922; [2]): retained some antimicrobial activity | LPS binding (BC displacement), in words [1]: decreased LPS binding relative to ATRA1

KRWKKWWKKWK (SEQ ID NO: 14) [ATRA1-W4]
antimicrobial efficacy, in words (E. coli ATCC 25922; [3]): most effective in DPBS | LPS binding (BC displacement), in words [1]: higher efficacy to bind LPS than the parent ATRA1
